Experimental data: patent publication US20240262835A1, “PRMT5 INHIBITING COMPOUNDS AND USES THEREOF” (ANTENGENE DISCOVERY LIMITED, priority 2023, published 2024)

Experiments:
[1] = system: cryopreserved hepatocytes; conditions: dog
in vitro [2] = conditions: dog, hepatocytes
[3] = system: cryopreserved hepatocytes; conditions: cynomolgus monkey
Procedure: 1) 10 mM test compounds were provided.
(§1) 2) 30 mM positive control stock solutions: Dissolved accurate amount of positive control compounds in dimethyl sulfoxide (DMSO).
(§2) 3) 1000× Stock Solution: Diluted 10 mM test compounds and 30 mM positive control compounds to 1 mM and 3 mM with DMSO in 96-well plates.
(§3) 4) 100× Dosing Solution: Diluted 1 mM test compounds and 3 mM positive control compounds to 100 μM and 300 μM dosing solutions with ACN.
(§4) 5) Preparation of 0.5×10^6/mL cells suspension: cryopreserved cells were thawed, isolated and suspended in Incubation Medium, then diluted with pre-warmed Incubation Medium to 0.5×10^6 cells/mL.
(§5) 6) Add 198 μL of pre-warmed cell suspensions in 96-well plates.
(§6) 7) Preparation of Quenching Plate: Transfer 125 μL of stop solution in a set of pre-labeled 96-well plates.
(§7) 8) Spike 2 μL dosing solution to each well of 96-well plates in duplicate.
(§8) 9) For TO Samples, mix to achieve a homogenous suspension for about 1 min, then immediately transfer 25 μL of each sample into well containing 125 μL of ice-cold stop solution followed by mixing.
(§9) 10) Incubate all plates at 37° C. in a 95% humidified incubator at 5% CO2 to start the reactions with constant shaking.
(§10) 11) At 15, 30, 60 and 90 min, mix samples and then transfer 25 μL of each sample at each time point to well containing 125 μL of ice-cold stop solution followed by mixing.
(§11) 12) Medium Control (MC) sample plates (labeled as TO-MC and T90-MC) are prepared in the same way as cell incubation except that medium was used instead of cell suspension.
(§12) 13) At each corresponding time point, stop the reactions by removing the plates from incubator and mixing with 125 μL of ice-cold stop solution.
(§13) 14) Vortex the plates immediately on a plate shaker at 600 rpm for 10 minutes. Then, centrifuge all sample plates at 3220×g for 20 min at 4° C.
(§14) 15) After centrifugation, 80 μL/well of supernatant in the sample plates are transferred to another set of pre-labeled 96-well plates which containing 240 μL of ultra pure water according to the plate map.
(§15) 16) Analytical plates are sealed and store at 4° C. until LC-MS/MS analysis.
(§16) The remaining percents of test articles after incubation were calculated by the follow equations:
(§17) Use the following equation of first order kinetics to calculate T1/2 and CLint:

[4] = system: cryopreserved hepatocytes; conditions: rat
in vitro [5] = conditions: human, hepatocytes
Procedure: 1) 10 mM test compounds were provided.
as §1, §2, §3, §4, §5, §6, §7, §8, §9, §10, §11, §12, §13, §14, §15, §16, §17

in vitro [6] = conditions: mouse, hepatocytes
Procedure: 1) 10 mM test compounds were provided.
as §1, §2, §3, §4, §5, §6, §7, §8, §9, §10, §11, §12, §13, §14, §15, §16, §17

in vitro [7] = conditions: cynomolgus monkey, hepatocytes
Procedure: 1) 10 mM test compounds were provided.
as §1, §2, §3, §4, §5, §6, §7, §8, §9, §10, §11, §12, §13, §14, §15, §16, §17

[8] = system: cryopreserved hepatocytes; conditions: mouse
Procedure: 1) 10 mM test compounds were provided.
as §1, §2, §3, §4, §5, §6, §7, §8, §9, §10, §11, §12, §13, §14, §15, §16, §17

in vitro [9] = conditions: rat, hepatocytes
[10] = system: cryopreserved hepatocytes; conditions: human
Procedure: 1) 10 mM test compounds were provided.
as §1, §2, §3, §4, §5, §6, §7, §8, §9, §10, §11, §12, §13, §14, §15, §16, §17

[11] = Liver microsome metabolic stability (LMS) assay, cynomolgus monkey
[12] = Liver microsome metabolic stability (LMS) assay, dog; conditions: dog, microsomes
in vitro [13] = conditions: rat, microsomes
[14] = rat liver microsome, scaled to liver
[15] = Liver microsome metabolic stability (LMS) assay, human

In the case of `CCOc1ccc2ccc(=O)oc2c1` [Ref. 1, 7-Ethoxycoumarin], the “CLint (hep) D” value [1] is reported as 521.1 μL/min/10^6, the CLint scaled at 3 μM (in vitro [2]) is reported as 3580 mL/min/kg and the “CLint (hep) C” value [3] is reported as 154.0 μL/min/10^6. For the same compound, the “CLint (hep) R” value [4] was 39.2 μL/min/10^6, the CLint scaled at 3 μM (in vitro [5]) was 201 mL/min/kg and the half-life at 3 μM (in vitro [5]) was 19.2 min. It also gave a CLint scaled at 3 μM (in vitro [6]) of 7700 mL/min/kg, a half-life at 3 μM (in vitro [6]) of 2.1 min and a CLint scaled at 3 μM (in vitro [7]) of 554 mL/min/kg. For the same compound, the half-life at 3 μM (in vitro [7]) was 9 min, the “CLint (hep) M” value [8] was 647.9 μL/min/10^6 and the CLint scaled at 3 μM (in vitro [9]) was 184 mL/min/kg. The half-life at 3 μM (in vitro [9]) was 35.3 min and the “CLint (hep) H” value [10] was 72.1 μL/min/10^6.
In the case of `C[C@]12CC[C@H]3[C@@H](CCC4=CC(=O)CC[C@@]43C)[C@@H]1CC[C@@H]2O` [Ref. 4, Testosterone, reference compound], the “CLint (mic) C” value ([11]; cynomolgus monkey liver microsome) is reported as 152.3 µL/min/mg, the CLint scaled at 1 μM ([11]; cynomolgus monkey, microsomes) is reported as 206 mL/min/kg and the half-life at 1 μM ([11]; cynomolgus monkey, microsomes) is reported as 9.1 min. For the same compound, the CLint scaled at 1 μM [12] was 58.7 mL/min/kg, the half-life at 1 μM [12] was 34 min and the microsomal CLint at 1 μM [12] was 40.8 µL/min/mg. The half-life (in vitro [13]) was 0.7 min, the “CLint (liver) R” value [14] was 3782.4 mL/min/kg and the “CLint (mic) H” value ([15]; human liver microsome) was 79.0 µL/min/mg. It also gave a half-life at 1 μM ([15]; human, microsomes) of 17.6 min.
